{"source": "patent EP0318138A1", "about": "“Use of inorganic fluorides and nitrogen heterocyclics for enhancement of fluoride uptake in teeth” (SHISEIDO COMPANY LIMITED, priority 1987, dated 1989)", "key": {"[1]": {"test": "Experiment 2: fluorine concentration in enamel of treated tooth by enamel biopsy", "set-up": "species or system bovine", "protocol": "(§1) A fluoride compound, and pyridoxine hydrochloride, 3-pyridylcarbinol or thiamine hydrochloride were added to distilled water, in amounts shown in table 4 to produce preparations. A bovine tooth (which had been ground to remove 200 µm of the surface and expose the enamel surface) was incubated in each preparation at 37°C for 5 minutes and in a calcifying solution at 37°C for 60 minutes, and then washed with tap water and dried. The fluorine concentration in the enamel of the fluoride-treated bovine tooth was determined by enamel biopsy. […] Considerable decalcification. x ... No inhibition of decalcification."}, "[2]": {"test": "Experiment 1: fluorine concentration in treated synthetic hydroxyapatite powder (microdiffusion analysis)", "details": "pH 4.5, 37°C 5 minutes, then calcifying solution 60 minutes", "protocol": "(§2) Sodium fluoride and the heterocyclic compounds or the fatty acid ester (for comparison) listed in Tables 1 to 3 were added to an distilled water in the amounts shown in Tables 1 to 3, and the pH of the solution was adjusted to 4.5 with dilute hydrochloride or sodium hydroxide to form several preparations. Synthetic hydroxyapatite powder was incubated in each of the preparations at 37°C for 5 minutes and in a calcifying solution at 37°C for 60 minutes, and then filtrated and dried. The fluorine concentration in the treated synthetic hydroxyapatite powder was determined by microdiffusion analysis, and the amount of dissolved calcium after incubating the treated powder in an acetate buffer at 37°C for 60 minutes was measured. The inhibition (%) of decalcification was then calculated by the following equation, to evaluate the acid resistance thereof. [drawing 3]"}, "[3]": {"test": "Experiment 2: decalcification in acidic gelatin gel observed by microradiography", "set-up": "species or system bovine", "details": "4W in acidic gelatin gel", "protocol": "as §1"}, "[4]": {"test": "Experiment 1: inhibition of decalcification (dissolved calcium from treated powder in acetate buffer)", "details": "acetate buffer 37°C 60 minutes", "protocol": "as §2"}}}
{"smiles": "[F-].[Na+]", "note": "[Sodium fluoride]", "values": [{"measurement": "F conc. in enamel", "setting": "[1]; 1st Etch", "result": 498, "unit": "ppm"}, {"measurement": "F conc. in enamel", "setting": "[1]; 2nd etch", "result": 309, "unit": "ppm"}, {"measurement": "F conc. in enamel", "setting": "[1]; 3rd etch", "result": 222, "unit": "ppm"}, {"measurement": "F conc. in enamel", "setting": "[1]; 4th etch", "result": 178, "unit": "ppm"}, {"measurement": "F conc. in enamel", "setting": "[1]; 5th etch", "result": 139, "unit": "ppm"}, {"measurement": "Fluorine concentration (ppm)", "setting": "[2]; Sodium fluoride 0.2 %, pyridoxine hydrochloride 0 %", "result": 4910, "unit": "ppm"}, {"measurement": "Fluorine concentration (ppm)", "setting": "[2]; Table 2, preparations in distilled water", "result": 4910, "unit": "ppm"}, {"measurement": "Fluorine concentration (ppm)", "setting": "[2]; Table 3, preparations in distilled water", "result": 4796, "unit": "ppm"}, {"measurement": "Inhibition of decalcification", "setting": "[3]", "result": "○"}, {"measurement": "Inhibition of decalcification (%)", "setting": "[4]; Sodium fluoride 0.2 %, pyridoxine hydrochloride 0 %, pH 4.5", "result": 40.9, "unit": "%"}, {"measurement": "Inhibition of decalcification (%)", "setting": "[4]; Table 2, preparations pH 4.5", "result": 40.9, "unit": "%"}, {"measurement": "Inhibition of decalcification (%)", "setting": "[4]; Table 3, preparations pH 4.5", "result": 40.9, "unit": "%"}]}
